Data: patent publication US20250346593A1, “IMIDAZO(1,2-1)PYRIDINE DERIVATIVES AS RIPK2 INHIBITORS” (Interline Therapeutics, Inc., priority 2022, published 2025)
pIC50: −log10 of the molar value. Where two headings read alike, the source gives them in different places.

Experiments:
[1] = molecular target: GST-RIPK2 fusion protein (human RIPK2 amino acids 1-310) (Homo sapiens (Human), UniProt O43353); assay: RIPK2 binding competition assay (TR-FRET, Tracer 199)
[2] = test system: NF-κB pathway (SEAP) in THP1-Dual cells; assay: THP-1 Dual cell SEAP assay (L18-MDP stimulated); type: cell-based; conditions: read-out: NFkB THP1 IC50
[3] = read-out: RIPK2 IC50, RIPK2 binding competition assay

Sequence of GST-RIPK2 fusion protein (human RIPK2 amino acids 1-310) (O43353 1-310): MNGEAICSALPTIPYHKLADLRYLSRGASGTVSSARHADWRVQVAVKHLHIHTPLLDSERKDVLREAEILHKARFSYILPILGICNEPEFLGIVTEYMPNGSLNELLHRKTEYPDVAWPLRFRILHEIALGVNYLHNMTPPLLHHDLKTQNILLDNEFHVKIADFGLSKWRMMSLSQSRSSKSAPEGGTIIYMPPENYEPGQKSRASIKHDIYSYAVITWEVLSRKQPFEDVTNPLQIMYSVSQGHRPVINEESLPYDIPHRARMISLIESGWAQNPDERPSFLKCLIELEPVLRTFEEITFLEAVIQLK

| Structure (SMILES) | pIC50 [1] | pIC50 ([2]; Homo sapiens, THP1-Dual) | also measured |
| --- | --- | --- | --- |
| COc1cc2ncc(-c3cc(F)nc(NCCC(C)O)c3)n2cc1S(=O)(=O)C(C)(C)C (racemic) [Example 190, rac-4-((4-(6-(tert-butylsulfonyl)-7-methoxyimidazo[1,2-a]pyridin-3-yl)-6-fluoropyridin-2-yl)amino)butan-2-ol] | > 9.00 |  |  |
| COc1cc2ncc(-c3cc(F)nc(N[C@@H]4CC[C@H](O)C4)c3)n2cc1S(=O)(=O)C(C)(C)C (racemic) [Example 192, rac-(1R,3S)-3-((4-(6-(tert-butylsulfonyl)-7-methoxyimidazo[1,2-a]pyridin-3-yl)-6-fluoropyridin-2-yl)amino)cyclopentan-1-ol] | > 9.00 | > 7.30 |  |
| COc1cc2ncc(-c3cc(F)nc(N[C@@H]4CC[C@@H](O)C4)c3)n2cc1S(=O)(=O)C(C)(C)C (racemic) [Example 197, rac-(1R,3R)-3-((4-(6-(tert-butylsulfonyl)-7-methoxyimidazo[1,2-a]pyridin-3-yl)-6-fluoropyridin-2-yl)amino)cyclopentan-1-ol] | 8.60 to 9.00 | > 7.30 |  |
| COc1cc2ncc(-c3cc(F)nc(N[C@@H]4CCC[C@@H](O)C4)c3)n2cc1S(=O)(=O)C(C)(C)C (racemic) [Example 205, rac-(1R,3R)-3-((4-(6-(tert-butylsulfonyl)-7-methoxyimidazo[1,2-a]pyridin-3-yl)-6-fluoropyridin-2-yl)amino)cyclohexan-1-ol] | 8.60 to 9.00 | 6.60 to 7.30 |  |
| COc1cc2ncc(-c3cc(F)nc(NC4CCCC[C@H]4O)c3)n2cc1S(=O)(=O)C(C)(C)C (mixture of isomers) [Example 225, (1R,2R & 1S,2S)-2-((4-(6-(tert-butylsulfonyl)-7-methoxyimidazo[1,2-a]pyridin-3-yl)-6-fluoropyridin-2-yl)amino)cyclohexan-1-ol] | 7.70 to 8.60 | 6.00 to 6.60 |  |
| CCOc1cc2ncc(-c3cc(F)nc(NCCC(O)CC)c3)n2cc1S(=O)(=O)C(C)C (racemic) [Example 246, Rac-1-({4-[7-ethoxy-6-(propane-2-sulfonyl)imidazo[1,2-a]pyridin-3-yl]-6-fluoropyridin-2-yl}amino)pentan-3-ol] | > 9.00 | > 7.30 |  |
| COc1cc2ncc(-c3cc(F)nc(NCCC(C)O)c3)n2cc1S(=O)(=O)C(C)(C)C (single isomer, unassigned) [Example 169, 4-((4-(6-(tert-butylsulfonyl)-7-methoxyimidazo[1,2-a]pyridin-3-yl)-6-fluoropyridin-2-yl)amino)butan-2-ol] | > 9.00 | > 7.30 |  |
| COc1cc2ncc(-c3cc(F)nc(NCCC(C)O)c3)n2cc1S(=O)(=O)C(C)(C)C (single isomer, unassigned) [Example 170, 4-((4-(6-(tert-butylsulfonyl)-7-methoxyimidazo[1,2-a]pyridin-3-yl)-6-fluoropyridin-2-yl)amino)butan-2-ol] |  |  | pIC50 [1, 3]: > 9.00; pIC50 [2]: > 7.30 |
| COc1cc2ncc(-c3cc(F)nc(NC[C@@H]4CCNC(=O)C4)c3)n2cc1S(=O)(=O)C(C)(C)C (single isomer, unassigned) [Example 238, (4R or S)-4-[({6-fluoro-4-[7-methoxy-6-(2-methylpropane-2-sulfonyl)imidazo[1,2-a]pyridin-3-yl]pyridin-2-yl}amino)methyl]pi peridin-2-one] | 8.60 to 9.00 | 6.60 to 7.30 |  |
| COc1cc2ncc(-c3ccnc(F)c3)n2cc1S(=O)(=O)C(C)(C)C [Example 5, 6-(tert-butylsulfonyl)-3-(2-fluoropyridin-4-yl)-7-methoxyimidazo[1,2-a]pyridine] | 7.70 to 8.60 |  |  |
| COc1cc2ncc(-c3ccnc(N)c3)n2cc1S(=O)(=O)C(C)(C)C [Example 11, 4-[7-methoxy-6-(2-methylpropane-2-sulfonyl)imidazo[1,2-a]pyridin-3-yl]pyridin-2-amine] |  | 6.00 to 6.60 |  |
| COc1cc2ncc(-c3cc(C)nc(F)c3)n2cc1S(=O)(=O)C(C)(C)C [Example 12, 2-fluoro-4-[7-methoxy-6-(2-methylpropane-2-sulfonyl)imidazo[1,2-a]pyridin-3-yl]-6-methylpyridine] | 7.70 to 8.60 |  |  |
| COc1ccc(-c2cnc3cc(OC)c(S(=O)(=O)C4CC4)cn23)cc1N [Example 33, 5-(6-(cyclopropylsulfonyl)-7-methoxyimidazo[1,2-a]pyridin-3-yl)-2-methoxyaniline] |  |  | pIC50 [1, 3]: < 7.70 |
| COc1ccc(-c2cnc3cc(OC)c(S(=O)(=O)C(C)(C)C)cn23)cc1F [Example 63, 6-(tert-butylsulfonyl)-3-(3-fluoro-4-methoxyphenyl)-7-methoxyimidazo[1,2-a]pyridine] | 7.70 to 8.60 |  |  |
| COc1cc2ncc(-c3ccc(N)c(C#N)c3)n2cc1S(=O)(=O)C(C)(C)C [Example 70, 2-amino-5-(6-(tert-butylsulfonyl)-7-methoxyimidazo[1,2-a]pyridin-3-yl)benzonitrile] | 7.70 to 8.60 |  |  |
| COc1cc2ncc(-c3ccc(O)cc3)n2cc1S(=O)(=O)C(C)(C)C [Example 149, 4-(6-(tert-butylsulfonyl)-7-methoxyimidazo[1,2-a]pyridin-3-yl)phenol] |  | 6.00 to 6.60 |  |

| Structure (SMILES) | pIC50 [1] | pIC50 ([2]; Homo sapiens, THP1-Dual) | also measured |
| --- | --- | --- | --- |
| COc1cc2ncc(-c3cc(Cl)ncc3C)n2cc1S(=O)(=O)C(C)(C)C [Example 159, 6-(tert-Butylsulfonyl)-3-(2-chloro-5-methylpyridin-4-yl)-7-methoxyimidazo[1,2-a]pyridine] |  |  | pIC50 [1, 3]: < 7.70 |
| CC(C)(C)S(=O)(=O)c1ccc2ncc(-c3cc(F)nc(NCCC4(O)CC4)c3)n2c1 [Example 172, 1-(2-((4-(6-(tert-butylsulfonyl)imidazo [1,2-a]pyridin-3-yl)-6-fluoropyridin-2-yl)amino)ethyl)cyclo-propan-1-ol] | 8.60 to 9.00 |  |  |
| CC(C)(C)S(=O)(=O)c1ccc2ncc(-c3cc(F)nc(NCCCO)c3)n2c1 [Example 173, 3-((4-(6-(tert-butylsulfonyl)imidazo [1,2-a]pyridin-3-yl)-6-fluoropyridin-2-yl)amino)propan-1-ol] | 7.70 to 8.60 |  |  |
| COc1cc2ncc(-c3cc(F)nc(NC4CC4)c3)n2cc1S(=O)(=O)C(C)(C)C [Example 177, 4-(6-(tert-butylsulfonyl)-7-methoxyimidazo[1,2-a]pyridin-3-yl)-N-cyclopropyl-6-fluoropyridin-2-amine] |  |  | pIC50 [1, 3]: > 9.00 |
| COc1cc2ncc(-c3cc(F)nc(NCCC4(O)CCC4)c3)n2cc1S(=O)(=O)C(C)(C)C [Example 187, 1-(2-((4-(6-(tert-butylsulfonyl)-7-methoxyimidazo[1,2-a]pyridin-3-yl)-6-fluoropyridin-2-yl)amino)ethyl)cyclo-butan-1-ol] |  |  | pIC50 [1, 3]: > 9.00 |
| COc1cc2ncc(-c3cc(F)nc(NCCC(C)(C)O)c3)n2cc1S(=O)(=O)C(C)(C)C [Example 189, 4-((4-(6-(tert-butylsulfonyl)-7-methoxyimidazo[1,2-a]pyridin-3-yl)-6-fluoropyridin-2-yl)amino)-2-methylbutan-2-ol] |  |  | pIC50 [1, 3]: > 9.00 |
| COc1cc2ncc(-c3cc(F)nc(NC4CC(O)C4)c3)n2cc1S(=O)(=O)C(C)(C)C (stereo not shown) [Example 191, (1s,3s)-3-((4-(6-(tert-butylsulfonyl)-7-methoxyimidazo[1,2-a]pyridin-3-yl)-6-fluoropyridin-2-yl)amino)cyclobutan-1-ol] |  | > 7.30 |  |
| COc1cc2ncc(-c3cc(F)nc(N[C@H]4C[C@@H](O)C4)c3)n2cc1S(=O)(=O)C(C)(C)C [Example 191, (1s,3s)-3-((4-(6-(tert-butylsulfonyl)-7-methoxyimidazo[1,2-a]pyridin-3-yl)-6-fluoropyridin-2-yl)amino)cyclobutan-1-ol] | > 9.00 |  |  |
| COc1cc2ncc(-c3cc(F)nc(NC4CCC(O)CC4)c3)n2cc1S(=O)(=O)C(C)(C)C (stereo not shown) [Example 204, (1r,4r)-4-((4-(6-(tert-butylsulfonyl)-7-methoxyimidazo[1,2-a]pyridin-3-yl)-6-fluoropyridin-2-yl)amino)cyclohexan-1-ol] |  | 6.60 to 7.30 |  |
| COc1cc2ncc(-c3cc(F)nc(N[C@H]4CC[C@H](O)CC4)c3)n2cc1S(=O)(=O)C(C)(C)C [Example 204, (1r,4r)-4-((4-(6-(tert-butylsulfonyl)-7-methoxyimidazo[1,2-a]pyridin-3-yl)-6-fluoropyridin-2-yl)amino)cyclohexan-1-ol] | 8.60 to 9.00 |  |  |
| COc1cc2ncc(-c3cc(F)nc(N4CC5(C4)CC(O)(C(F)(F)F)C5)c3)n2cc1S(=O)(=O)C(C)(C)C [Example 217, 2-{6-fluoro-4-[7-methoxy-6-(2-methylpropane-2-sulfonyl)imidazo[1,2-a]pyridin-3-yl]pyridin-2-yl}-6-(trifluoromethyl)-2-azaspiro[3.3]heptan-6-ol] | 7.70 to 8.60 |  |  |
| COc1cc2ncc(-c3cc(F)nc(N4CC5(CC(O)C5)C4)c3)n2cc1S(=O)(=O)C(C)(C)C [Example 218, 2-{6-fluoro-4-[7-methoxy-6-(2-methylpropane-2-sulfonyl)imidazo[1,2-a]pyridin-3-yl]pyridin-2-yl}-2-azaspiro[3.3]heptan-6-o1] | 7.70 to 8.60 |  |  |
| COc1cc2ncc(-c3cc(F)nc(N[C@H]4C[C@H](OC)C4)c3)n2cc1S(=O)(=O)C(C)(C)C [Example 219, 6-fluoro-4-[7-methoxy-6-(2-methylpropane-2-sulfonyl)imidazo[1,2-a]pyridin-3-yl]-N-[(trans)-3-methoxycyclobutyl] pyridin-2-amine] | 8.60 to 9.00 |  |  |
| COc1cc2ncc(-c3cc(F)nc(N[C@H]4C[C@@H](OC)C4)c3)n2cc1S(=O)(=O)C(C)(C)C [Example 220, 6-fluoro-4-[7-methoxy-6-(2-methylpropane-2-sulfonyl)imidazo[1,2-a]pyridin-3-yl]-N-[cis-3-methoxycyclobutyl] pyridin-2-amine] | 8.60 to 9.00 |  |  |
| CC(C)(C)S(=O)(=O)c1ccn2ncc(-c3ccc(NCCCO)nc3F)c2c1 [Example 297, 3-((5-(5-(tert-butylsulfonyl)pyrazolo[1,5-a]pyridin-3-yl)-6-fluoropyridin-2-yl)amino)propan-1-ol] |  |  | pIC50 [1, 3]: < 7.70 |
| COc1cc2ncc(-c3cc(F)nc(NCCCNC(C)=O)c3)n2cc1S(=O)(=O)C(C)(C)C [Example 318, N-[3-({6-fluoro-4-[7-methoxy-6-(2-methylpropane-2-sulfonyl)imidazo [1,2-a]pyridin-3-yl]pyridin-2-yl}amino)propyl] acetamide] | 8.60 to 9.00 |  |  |
